Data as given in article PMC8141073, “Structurally Diverse Sesquiterpenoids with Anti-neuroinflammatory Activity from the Endolichenic Fungus Cryptomarasmius aucubae” (Natural Products and Bioprospecting, 2021).

Key:
[1] = Cell viability by MTT assay; format: cell-based, murine; details: mouse, BV-2 microglial cells, percentage of the LPS-only treatment group, compounds at 20 μM, 1 μg/mL LPS, BV-2 cells
Method: BV-2 murine microglial cells, acquired from Peking Union Medical College Cell Bank, were cultured in Dulbecco’s modified Eagle’s medium supplemented with 10% (v/v) heat-inactivated fetal bovine serum, penicillin (100 U/mL), and streptomycin ([…]) in carbon dioxide cell incubator. When cell growth density outnumbered 90%, BV-2 cells were seeded in 96-well plates at a density of 2 × 10^4/well, 100 μL) and incubated for 24 h. Next, the cells were treated with the compounds (DMSO as solvent) at 20 μM for 24 h in DMEM with 1 μg/mL LPS. Cells treated with DMSO alone were used as the negative control. After adding 20 μL of 10 mg/mL MTT reagent to each well, the samples were shaken lightly and incubated at 37 °C for 4 h. The supernatant was removed, the blue-purple crystals were fully dissolved in DMSO (200 μL), and the absorbance of each well was read at 570 nm (Tecan Sunrise, Switzerland). Percentage of cell viability is calculated as: (absorbance of treated well/absorbance of control well) × 100%.

[2] = test system: NO production induced by LPS in BV-2 microglial cells; assay: Nitric oxide (NO) production inhibitory assay (Griess reaction); format: cell-based, murine; details: for anti-inflammatory activity (reducing the release of NO), in words / inhibition at 20 µM: LPS-induced BV-2 microglial cells; for IC50 / inhibition at 20 µM: Mus musculus; for IC50: LPS (1 μg/mL)-induced BV-2 microglial cells, 24 h, 0.1–20.0 μM, read-out: IC50, inhibition of NO production
Method: BV-2 cells were seeded into 96-well plates at 2 × 10^4 cells/100 μL of medium and incubated for 24 h. Then, cells were treated with 1 μg/mL of lipopolysaccharide (LPS) and various concentrations (0.1–20.0 μM) of test compounds (DMSO as solvent) for 24 h. An equal amount of DMSO and LPS were served as the controls; quercetin (J&K Scientific, Beijing, China) was taken as the positive control). The NO concentration in the medium was measured by using a Nitric Oxide Assay Kit, according to the accumulated levels of nitrite in the supernatants by a standard Griess reaction. As follows, 50 μL of the culture supernatant of BV-2 cells was reacted with 50 μL of Griess reagent I and Griess regent II successively in a 96-well plate. The absorbance at 570 nm of the mixture was measured using a microplate reader. IC50 values were calculated as the concentrations that reduced NO production by 50%. Quercetin was taken as the positive control.

SMILES | IC50 [2] [µM] | viability at 24 h, 20 µM [1] [%] | anti-inflammatory activity (reducing the release of NO), in words [2] | inhibition at 20 µM [2] [%]
CC1=C2C[C@](C)(CO)C[C@@H]2C[C@@]2(C)CC[C@@]12O [Compound 4, sterpurol A] | 15.3 ± 1.43 | 98.7 ± 1.18 | moderate anti-inflammatory activity | 73.1
CC(=O)OCC1(C)CC2=C(C)C3(OC(C)=O)CCC3(C)CC2C1 (centres unmarked) [Compound 1, sterpurol D] | 14.8 ± 2.23 | 103 ± 4.73 | moderate anti-inflammatory activity | 75.9
CC1=C2C[C@@](C)(C(=O)O)C[C@H]2C[C@](C)(O)C12CC2 [Compound 6, paneolilludinic acid] | 11.5 ± 0.58 | 104 ± 2.67 | moderate anti-inflammatory activity | 79.1

Now from value to compound, other results behind:

IC50 [2] [µM] | SMILES | viability at 24 h, 20 µM [1] [%] | anti-inflammatory activity (reducing the release of NO), in words [2] | inhibition at 20 µM [2] [%]
9.93 ± 0.99 | CC(=O)O[C@@]12C[C@H](O)[C@]1(C)C[C@H]1C[C@@](C)(CO)CC1=C2C [Compound 2, sterpurol E] | 97.1 ± 4 | moderate anti-inflammatory activity | 85.4
> 20 | CC1=CC2C(C[C@H]1O)[C@@](C)(O)CC[C@H]2C(C)C (stereo partly drawn) [Compound 7, murolane-2α, 9β-diol-3-ene] |  |  | 51.7
9.06 ± 1.13 | CC(=O)O[C@@]12CC[C@]1(C)C[C@H]1C[C@@](C)(CO)CC1=C2C [Compound 5, sterpurol B] | 107 ± 2.73 | significant anti-inflammatory activity | 99.3
12.2 ± 0.4 | C/C(=C\CO)CC/C=C(\C)CC[C@@H](O)C(C)(C)O [Compound 8, (–)-10,11-dihydroxyfarnesol] | 99.12 ± 0.18 | moderate anti-inflammatory activity | 76.8
9.75 ± 0.79 | O=c1c(O)c(-c2ccc(O)c(O)c2)oc2cc(O)cc(O)c12 [Quercetin, quercetin, reference compound] | 101.5 ± 0.83 |  | 95.6
